Experimental data published in PubChem BioAssay AID248 (DTP/NCI, 2004).
Several values for one entry are separate records, joined by “and”; a condition that tells them apart may be missing. Identical values can stand only once. Inconclusive results and toxic doses are left out. Rule as the data show it: active = T/C of 150% or more; inactive = T/C below 125%.

Test system: L1210 leukemia ip in BDF1 mice, survival T/C
Experiment: NCI In Vivo Anticancer Drug Screen. Data for tumor model L1210 Leukemia (intraperitoneal) in B6D2F1 (BDF1) mice
Settings: endpoint: mean survival time, higher = longer survival
Procedure, shortened: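 Tumor cells were implanted, animals were treated, and survival was followed. The result divides the treated measurement by the vehicle-control measurement.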

[1] = dose: 100.0 mg/kg/injection, schedule: Q04DX003 (ip), vehicle: Klucel (hydroxypropylcellulose) (HPC)
[2] = dose: 200.0 mg/kg/injection, schedule: Q04DX003 (ip), vehicle: Klucel (hydroxypropylcellulose) (HPC)
[3] = dose: 100.0 mg/kg/injection, schedule: Q01DX009 (ip), vehicle: saline with Tween-80
[4] = dose: 100.0 mg/kg/injection, schedule: Q04DX003 (ip), vehicle: saline with Tween-80
[5] = dose: 200.0 mg/kg/injection, schedule: Q01DX009 (ip), vehicle: saline with Tween-80
[6] = dose: 200.0 mg/kg/injection, schedule: Q04DX003 (ip), vehicle: saline with Tween-80
[7] = dose: 400.0 mg/kg/injection, schedule: Q04DX003 (ip), vehicle: saline with Tween-80
[8] = dose: 100.0 mg/kg/injection, schedule: Q01DX001 (ip), vehicle: saline
[9] = dose: 200.0 mg/kg/injection, schedule: Q01DX001 (ip), vehicle: saline
[10] = dose: 400.0 mg/kg/injection, schedule: Q01DX001 (ip), vehicle: saline
[11] = dose: 100.0 mg/kg/injection, schedule: Q01DX009 (ip), vehicle: Klucel (hydroxypropylcellulose) (HPC)
[12] = dose: 200.0 mg/kg/injection, schedule: Q01DX009 (ip), vehicle: Klucel (hydroxypropylcellulose) (HPC)
[13] = dose: 400.0 mg/kg/injection, schedule: Q01DX009 (ip), vehicle: Klucel (hydroxypropylcellulose) (HPC)
[14] = dose: 400.0 mg/kg/injection, schedule: Q04DX003 (ip), vehicle: Klucel (hydroxypropylcellulose) (HPC)
[15] = dose: 25.0 mg/kg/injection, schedule: Q01DX009 (ip), vehicle: saline
[16] = dose: 50.0 mg/kg/injection, schedule: Q01DX009 (ip), vehicle: saline
[17] = dose: 50.0 mg/kg/injection, schedule: Q01DX001 (ip), vehicle: saline with Tween-80
[18] = dose: 100.0 mg/kg/injection, schedule: Q01DX001 (ip), vehicle: saline with Tween-80
[19] = dose: 200.0 mg/kg/injection, schedule: Q01DX001 (ip), vehicle: saline with Tween-80

Measured: T/C

Cc1cc(Cl)cc(C)c1O
inactive: dose: 75.0 mg/kg/injection, schedule: Q04DX003 (ip), vehicle: saline 114 % of control | dose: 150.0 mg/kg/injection, schedule: Q04DX003 (ip), vehicle: saline 100 % of control | dose: 300.0 mg/kg/injection, schedule: Q04DX003 (ip), vehicle: saline 112 % of control

C=C1CC(c2ccccc2)(c2cccs2)OC1=O (stereo unspecified)
inactive: [1] 98 % of control | [2] 96 % of control

CCCCC(CC)COC(C)=O (stereo unspecified)
inactive: [3] 94 % of control | [4] 98 % of control | [5] 102 % of control | [6] 93 % of control | dose: 400.0 mg/kg/injection, schedule: Q01DX009 (ip), vehicle: saline with Tween-80 91 % of control | [7] 92 % of control

C=CC[Se]CC=C
inactive: [1] 106 % of control | [2] 121 % of control

COc1ccc(C(=O)CC(=O)c2ccc(OC)cc2)cc1
inactive: dose: 50.0 mg/kg/injection, schedule: Q01DX001 (ip), vehicle: carboxymethylcellulose (CMC) 92 % of control | dose: 100.0 mg/kg/injection, schedule: Q01DX001 (ip), vehicle: carboxymethylcellulose (CMC) 92 % of control | dose: 200.0 mg/kg/injection, schedule: Q01DX001 (ip), vehicle: carboxymethylcellulose (CMC) 108 % of control | dose: 400.0 mg/kg/injection, schedule: Q01DX001 (ip), vehicle: carboxymethylcellulose (CMC) 94 % of control

CCC[CH2][Sn]([CH2]CC#N)([CH2]CCC)[CH2]CCC
inactive: dose: 25.0 mg/kg/injection, schedule: Q04DX002 (ip), vehicle: saline 97 % of control | dose: 50.0 mg/kg/injection, schedule: Q04DX002 (ip), vehicle: saline 94 % of control

COC(=O)CNC(=O)C1NC(C)(C)SC1(C)C (stereo unspecified)
inactive: [8] 97 % of control | [9] 101 % of control | [10] 95 % of control

O=[N+]([O-])c1cccc(N=Cc2ccccc2)c1
inactive: [11] 117 % of control | [1] 88 % of control | [12] 111 % of control | [2] 96 % of control | [13] 88 % of control | [14] 97 % of control

CCNc1nc(C)c2nc(C(=O)NCc3ccccc3)c(=O)n(CC)c2n1
inactive: dose: 100.0 mg/kg/injection, schedule: Q01DX001 (ip), vehicle: Klucel (hydroxypropylcellulose) (HPC) 94 % of control | dose: 200.0 mg/kg/injection, schedule: Q01DX001 (ip), vehicle: Klucel (hydroxypropylcellulose) (HPC) 94 % of control

NC(=O)CSc1cc(Cl)c(Cl)cc1Cl
inactive: dose: 50.0 mg/kg/injection, schedule: Q04DX003 (ip), vehicle: saline with Tween-80 103 % of control | [4] 106 % of control | [6] 90 % of control

CCC(=O)Nc1cccc(C)c1C
inactive: [11] 93 % of control | [1] 102 % of control | [12] 106 % of control | [2] 102 % of control | [14] 95 % of control

COc1cccc(C(=O)NC[n+]2ccccc2)c1
inactive: [15] 92 % of control | dose: 25.0 mg/kg/injection, schedule: Q04DX003 (ip), vehicle: saline 96 % of control | [16] 87 % of control | dose: 50.0 mg/kg/injection, schedule: Q04DX003 (ip), vehicle: saline 86 % of control | dose: 100.0 mg/kg/injection, schedule: Q04DX003 (ip), vehicle: saline 100 % of control

O=c1c(=NNc2ccccc2)c(=O)c2ccccc12
inactive: dose: 50.0 mg/kg/injection, schedule: Q01DX001 (ip), vehicle: saline 94 % of control | [8] 94 % of control | [9] 88 % of control | [10] 102 % of control

COc1cccc(NC(=O)Nc2cccc(Cl)c2)c1
inactive: [11] 94 % of control | [13] 95 % of control

COC(=O)c1cc(C(C)=O)nc2ccccc12
inactive: [4] 94 % of control | [6] 99 % of control | [7] 90 % of control

O=C(O)C12CCC(CO)(CC1)CC2
inactive: [17] 103 % of control | [18] 100 % of control | [19] 92 % of control

CC(=O)OC1(C[N+](=O)[O-])CCCCC1
inactive: [17] 93 % of control | [18] 101 % of control | [19] 101 % of control

CCCCCCCCCCSCCSCCSCCCCCCCCCC
inactive: [1] 94 % of control

NC(=O)c1ccncc1
inactive: [8] 105 % of control | [9] 104 % of control | [10] 98 % of control

NCCCn1c2ccccc2c2cnccc21
inactive: dose: 12.5 mg/kg/injection, schedule: Q01DX009 (ip), vehicle: saline 101 % of control | [15] 101 % of control | dose: 25.0 mg/kg/injection, schedule: Q04DX003 (ip), vehicle: water 87 % of control | [16] 107 % of control | dose: 50.0 mg/kg/injection, schedule: Q01DX009 (ip), vehicle: water 104 % of control | dose: 50.0 mg/kg/injection, schedule: Q04DX003 (ip), vehicle: water 92 % of control | dose: 100.0 mg/kg/injection, schedule: Q01DX009 (ip), vehicle: water 103 % of control | dose: 100.0 mg/kg/injection, schedule: Q04DX003 (ip), vehicle: water 104 % of control and 87 % of control

Cc1cc(NS(=O)(=O)c2ccc(N=Nc3c(N)nc(N)[nH]c3=O)cc2)nc(C)n1
inactive: [8] 97 % of control | [9] 89 % of control | [10] 92 % of control

CC(Oc1cc(Cl)c(Cl)cc1Cl)C(=O)OCCCc1ccccn1 (stereo unspecified)
inactive: dose: 50.0 mg/kg/injection, schedule: Q01DX009 (ip), vehicle: Klucel (hydroxypropylcellulose) (HPC) 106 % of control | [11] 100 % of control and 111 % of control | dose: 100.0 mg/kg/injection, schedule: Q04DX002 (ip), vehicle: Klucel (hydroxypropylcellulose) (HPC) 103 % of control | [12] 114 % of control | dose: 200.0 mg/kg/injection, schedule: Q04DX002 (ip), vehicle: Klucel (hydroxypropylcellulose) (HPC) 107 % of control | dose: 400.0 mg/kg/injection, schedule: Q04DX002 (ip), vehicle: Klucel (hydroxypropylcellulose) (HPC) 90 % of control

O=c1[nH]cnc2nc(I)[nH]c12
inactive: [8] 104 % of control | [9] 98 % of control | [10] 98 % of control

CC(C)c1ccc(/C=C\C(=O)c2ccc(-c3ccccc3)cc2)cc1
inactive: [3] 103 % of control | dose: 100.0 mg/kg/injection, schedule: Q04DX002 (ip), vehicle: saline with Tween-80 86 % of control | [5] 106 % of control | dose: 200.0 mg/kg/injection, schedule: Q04DX002 (ip), vehicle: saline with Tween-80 101 % of control | dose: 400.0 mg/kg/injection, schedule: Q04DX002 (ip), vehicle: saline with Tween-80 101 % of control

CC(C)(CO)CCl
inactive: dose: 50.0 mg/kg/injection, schedule: Q01DX009 (ip), vehicle: saline with Tween-80 91 % of control | [3] 95 % of control | [5] 88 % of control

COc1ccc(/C=N/NC(=O)c2ccccc2)c(OC)c1
inactive: [11] 100 % of control | [12] 100 % of control | [13] 103 % of control

C=COC(=O)CCCCCCC (tested in a mixture with another compound)
inactive: dose: 4.0 mg/kg/injection, schedule: Q01DX001 (ip), vehicle: acetone 89 % of control | dose: 5.0 mg/kg/injection, schedule: Q01DX001 (ip), vehicle: acetone 94 % of control | dose: 5.0 mg/kg/injection, schedule: Q01DX001 (ip), vehicle: saline 97 % of control | dose: 6.0 mg/kg/injection, schedule: Q01DX001 (ip), vehicle: acetone 106 % of control | dose: 10.0 mg/kg/injection, schedule: Q01DX001 (ip), vehicle: acetone 93 % of control | dose: 10.0 mg/kg/injection, schedule: Q01DX001 (ip), vehicle: saline 87 % of control | dose: 20.0 mg/kg/injection, schedule: Q01DX001 (ip), vehicle: acetone 92 % of control | dose: 20.0 mg/kg/injection, schedule: Q01DX001 (ip), vehicle: saline 101 % of control | dose: 40.0 mg/kg/injection, schedule: Q01DX001 (ip), vehicle: acetone 95 % of control | dose: 40.0 mg/kg/injection, schedule: Q01DX001 (ip), vehicle: saline 97 % of control | dose: 80.0 mg/kg/injection, schedule: Q01DX001 (ip), vehicle: acetone 90 % of control | dose: 80.0 mg/kg/injection, schedule: Q01DX001 (ip), vehicle: saline 102 % of control | [8] 110 % of control and 104 % of control and 105 % of control | [9] 94 % of control | [10] 100 % of control and 101 % of control
